In ChEMBL document CHEMBL1201862, “PubChem BioAssay data set” (2004):
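Five compound concentrations were applied to cells in 96-well plates for 48 hours; endpoints were derived by simple linear interpolation of the resulting dose-response curve. At the GI50, growth is halved.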 Calls of active or inactive are those of the source. No stated cut-off is given here; in the data, active = GI50 up to about 1.1 µM and inactive = higher.

What was measured:
Experiment in all cases: DTP human tumour cell line panel, 48 h
[1] = system: M14
[2] = system: LXFL 529
[3] = system: SK-MEL-2
[4] = system: SK-OV-3
[5] = system: OVCAR-3
[6] = system: SK-MEL-28
[7] = system: HCT-15
[8] = system: 786-0
[9] = system: NCI-H226
[10] = system: A549
[11] = system: HT-29
[12] = system: Malme-3M
[13] = system: KM12
[14] = system: SR
[15] = system: SF-295
[16] = system: NCI-H23
[17] = system: EKVX

Row | SMILES | GI50 [1] | GI50 [2] | GI50 [3] | GI50 [4] | GI50 [5] | GI50 [6] | GI50 [7] | GI50 [8] | GI50 [9] | GI50 [10] | GI50 [11] | GI50 [12] | GI50 [13] | GI50 [14] | GI50 [15] | GI50 [16] | GI50 [17]
1 | S=C1CNC(=S)CN1 | > 100 µM (inactive) | > 100 µM (inactive) | > 100 µM (inactive) | > 100 µM (inactive) | > 100 µM (inactive) | > 100 µM (inactive) | > 100 µM | > 100 µM (inactive) | > 100 µM (inactive) | > 100 µM (inactive) | > 100 µM (inactive) | > 100 µM (inactive) | > 100 µM (inactive) | > 100 µM (inactive) | > 100 µM (inactive) |  | 
2 | Cc1ccc(S(=O)(=O)N/N=C/CN2C(=O)c3ccccc3C2=O)cc1 | > 100 µM (inactive) | > 100 µM (inactive) | > 100 µM (inactive) |  |  |  | > 100 µM | > 100 µM (inactive) | 82.2 µM (inactive) | > 100 µM (inactive) | > 100 µM (inactive) | > 100 µM (inactive) |  | > 100 µM (inactive) | > 100 µM (inactive) | > 100 µM (inactive) | > 100 µM (inactive)
3 | CNC(=O)C1CCc2nnc(-c3ccccc3)n21 (centres undefined) | > 100 µM (inactive) | > 100 µM (inactive) | > 100 µM (inactive) | > 100 µM (inactive) | > 100 µM (inactive) | > 100 µM (inactive) | > 100 µM | > 100 µM (inactive) | > 100 µM (inactive) | > 100 µM (inactive) |  | > 100 µM (inactive) | > 100 µM (inactive) | > 100 µM (inactive) |  |  | 55.2 µM (inactive)
4 | CC(=O)Oc1ccc2c(c1)C(=O)c1nc(C)c(C)nc1C2=O | 38.1 µM (inactive) | > 51.8 µM (inactive) | 39.6 µM (inactive) | 71.8 µM (inactive) | 21.4 µM (inactive) | 46.1 µM (inactive) | 40.9 µM | 37.2 µM (inactive) | 38.7 µM (inactive) | 43.7 µM (inactive) | 31.8 µM (inactive) | 19.5 µM (inactive) | 59.3 µM (inactive) | 29.6 µM (inactive) | 49.9 µM (inactive) | 43.4 µM (inactive) | > 48.6 µM (inactive)
5 | COc1ccc(SS(=O)(=O)c2ccc(OC)cc2)cc1 | 20 µM (inactive) | 17.7 µM (inactive) | 36 µM (inactive) | 34.2 µM (inactive) | 18.2 µM (inactive) | 19.6 µM (inactive) | 36.7 µM | 17.2 µM (inactive) | 23.6 µM (inactive) | 24.4 µM (inactive) | 32.1 µM (inactive) | 33.3 µM (inactive) | 16.5 µM (inactive) | 23.1 µM (inactive) | 19.5 µM (inactive) | 26.1 µM (inactive) | 21.1 µM (inactive)
6 | O=[N+]([O-])c1ccc(Cl)c(C2SCc3nc4ccccc4n32)c1 (centres undefined) |  | 34.8 µM (inactive) | 50.9 µM (inactive) | 36.6 µM (inactive) | 36.6 µM (inactive) | 40.6 µM (inactive) |  | 72.3 µM (inactive) | 24.1 µM (inactive) | 44.9 µM (inactive) | 36 µM (inactive) | 44.1 µM (inactive) | 29 µM (inactive) | 32.1 µM (inactive) | 32.6 µM (inactive) | 33.2 µM (inactive) | 42.4 µM (inactive)
7 | CN(C)CCn1cnc2ncccc2c1=O | > 100 µM (inactive) | > 100 µM (inactive) | > 100 µM (inactive) | > 100 µM (inactive) | > 100 µM (inactive) | > 100 µM (inactive) |  | > 100 µM (inactive) | > 100 µM (inactive) | > 100 µM (inactive) | > 100 µM (inactive) | > 100 µM (inactive) | > 100 µM (inactive) | > 100 µM (inactive) | > 100 µM (inactive) | > 100 µM (inactive) | > 100 µM (inactive)
8 | CC(=O)Nc1ccc(/C=C/C(=O)c2sc(-c3nc(C)c(C(=O)/C=C/c4ccc(NC(C)=O)cc4)s3)nc2C)cc1 | > 100 µM (inactive) | > 100 µM (inactive) | > 100 µM (inactive) | > 100 µM (inactive) | > 100 µM (inactive) | > 100 µM (inactive) | > 100 µM | > 100 µM (inactive) | > 100 µM (inactive) | > 100 µM (inactive) | > 100 µM (inactive) | > 100 µM (inactive) | > 100 µM (inactive) | > 100 µM (inactive) | > 100 µM (inactive) | > 100 µM (inactive) | > 100 µM (inactive)
